Reference: ChEMBL document CHEMBL1201862, “PubChem BioAssay data set” (2004)
Values belong to the compound of their own block, whether it stands above or below them. The source made the active and inactive calls.

Assays:
Leucine aminopeptidase = target: T1, Leucine aminopeptidase (Plasmodium falciparum 3D7, UniProt Q8IL11); assay: P. falciparum M17LAP inhibitors, primary screen, biochemical, fluorogenic H-Leu-NHMec substrate, 1536-well (AID 1619); type: functional
T1 sequence (Q8IL11 whole entry): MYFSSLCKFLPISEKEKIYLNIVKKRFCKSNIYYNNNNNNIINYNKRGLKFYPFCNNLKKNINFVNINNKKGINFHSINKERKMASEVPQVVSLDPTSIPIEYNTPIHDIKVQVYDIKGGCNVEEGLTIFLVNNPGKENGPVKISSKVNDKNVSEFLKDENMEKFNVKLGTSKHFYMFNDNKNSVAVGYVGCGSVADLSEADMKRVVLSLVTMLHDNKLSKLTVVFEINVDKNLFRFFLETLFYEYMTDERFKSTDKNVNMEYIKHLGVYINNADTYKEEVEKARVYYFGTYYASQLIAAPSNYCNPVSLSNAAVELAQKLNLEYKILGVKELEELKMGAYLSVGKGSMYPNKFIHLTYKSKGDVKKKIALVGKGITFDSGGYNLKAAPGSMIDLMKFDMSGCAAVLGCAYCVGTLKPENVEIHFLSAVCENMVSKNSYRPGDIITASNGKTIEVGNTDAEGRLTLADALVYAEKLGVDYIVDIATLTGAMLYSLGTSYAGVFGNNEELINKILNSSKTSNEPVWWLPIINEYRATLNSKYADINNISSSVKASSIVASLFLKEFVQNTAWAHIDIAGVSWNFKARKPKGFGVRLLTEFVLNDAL

Aminopeptidase N = target: T2, Aminopeptidase N (Plasmodium falciparum FcB1/Columbia, UniProt O96935); assay: P. falciparum M1AAP inhibitors, biochemical, fluorogenic H-Leu-NHMec substrate, 1536-well (AID 1445); parameters: species or system Plasmodium falciparum 3D7, 3D7
T2 sequence (O96935 whole entry): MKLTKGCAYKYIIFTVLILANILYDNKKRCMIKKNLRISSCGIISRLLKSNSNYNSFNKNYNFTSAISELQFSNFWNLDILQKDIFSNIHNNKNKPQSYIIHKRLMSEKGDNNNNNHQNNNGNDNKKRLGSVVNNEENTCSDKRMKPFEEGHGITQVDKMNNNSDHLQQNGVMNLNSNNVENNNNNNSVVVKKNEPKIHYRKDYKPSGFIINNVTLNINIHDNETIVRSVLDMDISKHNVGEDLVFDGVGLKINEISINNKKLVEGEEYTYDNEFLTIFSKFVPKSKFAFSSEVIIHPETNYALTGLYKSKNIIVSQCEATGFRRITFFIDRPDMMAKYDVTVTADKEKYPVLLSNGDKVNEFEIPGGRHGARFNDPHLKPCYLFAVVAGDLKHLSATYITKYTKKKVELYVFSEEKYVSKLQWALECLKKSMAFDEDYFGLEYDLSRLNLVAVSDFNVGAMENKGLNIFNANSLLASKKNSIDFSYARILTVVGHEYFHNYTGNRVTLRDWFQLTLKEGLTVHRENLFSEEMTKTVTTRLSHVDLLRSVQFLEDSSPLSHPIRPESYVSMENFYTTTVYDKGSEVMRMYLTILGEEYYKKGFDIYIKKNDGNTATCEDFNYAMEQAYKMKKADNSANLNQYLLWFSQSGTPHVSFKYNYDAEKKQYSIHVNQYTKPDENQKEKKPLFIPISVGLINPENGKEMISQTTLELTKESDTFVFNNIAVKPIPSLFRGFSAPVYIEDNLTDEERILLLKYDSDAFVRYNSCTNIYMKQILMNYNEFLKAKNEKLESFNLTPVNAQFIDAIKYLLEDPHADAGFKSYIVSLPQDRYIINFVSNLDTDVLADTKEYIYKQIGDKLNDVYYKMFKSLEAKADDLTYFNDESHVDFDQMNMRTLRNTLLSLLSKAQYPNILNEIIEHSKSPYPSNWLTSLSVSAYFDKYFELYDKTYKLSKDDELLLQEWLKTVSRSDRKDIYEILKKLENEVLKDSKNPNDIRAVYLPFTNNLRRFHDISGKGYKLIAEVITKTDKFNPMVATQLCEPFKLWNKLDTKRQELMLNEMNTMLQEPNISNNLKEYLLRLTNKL

[1] = target: T3, Histone-lysine N-methyltransferase NSD2 (Homo sapiens, UniProt O96028); type: biochemical
T3 sequence (O96028 whole entry): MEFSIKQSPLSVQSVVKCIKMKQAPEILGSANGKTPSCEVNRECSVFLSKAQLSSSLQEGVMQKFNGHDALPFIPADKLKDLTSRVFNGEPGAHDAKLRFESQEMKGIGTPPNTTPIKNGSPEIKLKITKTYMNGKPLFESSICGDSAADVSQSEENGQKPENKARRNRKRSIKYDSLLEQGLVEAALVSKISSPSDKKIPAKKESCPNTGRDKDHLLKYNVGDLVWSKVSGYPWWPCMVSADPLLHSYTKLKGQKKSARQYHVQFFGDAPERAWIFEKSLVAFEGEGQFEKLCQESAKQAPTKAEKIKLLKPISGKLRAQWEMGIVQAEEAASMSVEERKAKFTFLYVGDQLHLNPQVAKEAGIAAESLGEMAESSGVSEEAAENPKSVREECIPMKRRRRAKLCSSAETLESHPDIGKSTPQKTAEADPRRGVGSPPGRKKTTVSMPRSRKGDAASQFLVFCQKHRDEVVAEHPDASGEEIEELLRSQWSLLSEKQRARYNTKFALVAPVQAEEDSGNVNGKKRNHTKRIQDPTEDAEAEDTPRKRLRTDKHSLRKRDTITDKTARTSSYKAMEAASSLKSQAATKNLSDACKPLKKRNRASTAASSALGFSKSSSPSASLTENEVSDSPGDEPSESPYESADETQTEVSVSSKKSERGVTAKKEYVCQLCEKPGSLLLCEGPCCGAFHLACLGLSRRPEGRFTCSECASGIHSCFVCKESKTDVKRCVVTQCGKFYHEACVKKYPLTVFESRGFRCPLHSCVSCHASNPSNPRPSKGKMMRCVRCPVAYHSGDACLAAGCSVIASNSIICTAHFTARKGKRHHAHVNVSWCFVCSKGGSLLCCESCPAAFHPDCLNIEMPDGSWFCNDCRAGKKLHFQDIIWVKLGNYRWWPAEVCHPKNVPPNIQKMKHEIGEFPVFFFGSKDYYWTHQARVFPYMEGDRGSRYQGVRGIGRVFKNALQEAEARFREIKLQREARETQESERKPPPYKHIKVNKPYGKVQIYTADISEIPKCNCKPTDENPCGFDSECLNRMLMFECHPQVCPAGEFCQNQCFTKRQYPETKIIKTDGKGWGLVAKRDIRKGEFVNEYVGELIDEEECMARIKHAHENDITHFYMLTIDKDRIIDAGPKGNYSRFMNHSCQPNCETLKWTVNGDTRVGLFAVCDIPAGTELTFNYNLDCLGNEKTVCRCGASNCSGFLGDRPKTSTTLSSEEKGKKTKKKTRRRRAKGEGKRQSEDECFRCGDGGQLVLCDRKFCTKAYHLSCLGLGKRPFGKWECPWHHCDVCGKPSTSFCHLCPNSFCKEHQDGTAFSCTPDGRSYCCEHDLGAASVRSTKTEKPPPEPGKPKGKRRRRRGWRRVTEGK

[2] = target: T4, Tyrosine-protein phosphatase non-receptor type 11 (Homo sapiens, UniProt Q06124); assay: SHP2 phosphatase inhibition, dose response, selectivity assay for STEP inhibitor project, biochemical (AID 602367); type: functional; settings: read-out: IC50_Mean
T4 sequence (Q06124 whole entry): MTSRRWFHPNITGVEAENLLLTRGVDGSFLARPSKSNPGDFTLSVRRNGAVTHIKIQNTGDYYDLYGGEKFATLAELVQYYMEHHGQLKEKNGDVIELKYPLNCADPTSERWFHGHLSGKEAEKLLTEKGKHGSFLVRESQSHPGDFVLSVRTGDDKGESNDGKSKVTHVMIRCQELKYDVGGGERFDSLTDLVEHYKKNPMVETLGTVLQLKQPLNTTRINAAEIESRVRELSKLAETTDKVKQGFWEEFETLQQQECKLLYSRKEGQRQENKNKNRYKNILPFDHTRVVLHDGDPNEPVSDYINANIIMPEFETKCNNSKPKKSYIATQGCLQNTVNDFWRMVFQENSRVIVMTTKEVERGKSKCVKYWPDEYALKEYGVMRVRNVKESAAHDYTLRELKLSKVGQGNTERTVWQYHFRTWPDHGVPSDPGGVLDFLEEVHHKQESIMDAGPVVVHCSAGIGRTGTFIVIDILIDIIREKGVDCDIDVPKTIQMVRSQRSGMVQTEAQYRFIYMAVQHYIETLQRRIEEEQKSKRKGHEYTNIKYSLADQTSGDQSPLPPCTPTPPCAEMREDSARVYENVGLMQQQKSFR

[3] = target: T5, Tyrosine-protein phosphatase non-receptor type 5 (Homo sapiens, UniProt P54829); assay: STEP phosphatase inhibitors, confirmation, biochemical, fluorescence intensity, uHTS hits (AID 602372); type: functional; settings: read-out: IC50_Mean
T5 sequence (P54829 whole entry): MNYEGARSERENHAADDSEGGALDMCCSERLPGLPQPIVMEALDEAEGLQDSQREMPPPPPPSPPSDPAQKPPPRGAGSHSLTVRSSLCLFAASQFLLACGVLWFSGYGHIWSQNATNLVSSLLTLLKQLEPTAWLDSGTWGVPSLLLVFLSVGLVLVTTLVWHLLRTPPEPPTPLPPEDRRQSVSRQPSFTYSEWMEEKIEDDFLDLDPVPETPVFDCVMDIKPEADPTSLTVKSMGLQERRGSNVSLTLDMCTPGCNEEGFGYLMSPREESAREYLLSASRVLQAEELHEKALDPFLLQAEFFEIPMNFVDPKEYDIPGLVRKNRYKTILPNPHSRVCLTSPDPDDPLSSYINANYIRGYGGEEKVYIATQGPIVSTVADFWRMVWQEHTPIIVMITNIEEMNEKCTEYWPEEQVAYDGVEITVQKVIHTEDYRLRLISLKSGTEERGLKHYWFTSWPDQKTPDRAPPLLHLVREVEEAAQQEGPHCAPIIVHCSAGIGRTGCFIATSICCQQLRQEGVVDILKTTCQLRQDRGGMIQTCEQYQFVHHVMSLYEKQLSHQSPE

[4] = target: Dual specificity protein phosphatase 3 (Homo sapiens, UniProt P51452); assay: VHR phosphatase inhibition, dose response, selectivity assay for STEP inhibitor project, biochemical (AID 602374); type: functional; settings: read-out: IC50_Mean
Chain of Dual specificity protein phosphatase 3 (P51452 whole entry): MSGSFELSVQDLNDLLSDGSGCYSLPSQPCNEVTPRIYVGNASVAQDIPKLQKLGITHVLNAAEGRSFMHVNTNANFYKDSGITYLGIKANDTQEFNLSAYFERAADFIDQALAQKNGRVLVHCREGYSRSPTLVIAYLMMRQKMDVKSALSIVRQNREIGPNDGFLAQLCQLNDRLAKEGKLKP

[5] = target: T6, Ubiquitin-conjugating enzyme E2 N (Homo sapiens, UniProt P61088); type: functional;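 also: Dose-response confirmation in a TR-FRET assay detecting UBC13-driven polyubiquitin chain formation, inhibition measured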
T6 sequence (P61088 whole entry): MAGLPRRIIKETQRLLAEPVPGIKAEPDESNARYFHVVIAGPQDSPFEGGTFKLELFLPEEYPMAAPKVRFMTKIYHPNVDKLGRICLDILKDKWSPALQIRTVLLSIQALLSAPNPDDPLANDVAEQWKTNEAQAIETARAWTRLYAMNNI

[6] = target: T7, DNA repair protein RAD52 homolog (Homo sapiens, UniProt P43351); type: functional, biochemical
T7 sequence (P43351 whole entry): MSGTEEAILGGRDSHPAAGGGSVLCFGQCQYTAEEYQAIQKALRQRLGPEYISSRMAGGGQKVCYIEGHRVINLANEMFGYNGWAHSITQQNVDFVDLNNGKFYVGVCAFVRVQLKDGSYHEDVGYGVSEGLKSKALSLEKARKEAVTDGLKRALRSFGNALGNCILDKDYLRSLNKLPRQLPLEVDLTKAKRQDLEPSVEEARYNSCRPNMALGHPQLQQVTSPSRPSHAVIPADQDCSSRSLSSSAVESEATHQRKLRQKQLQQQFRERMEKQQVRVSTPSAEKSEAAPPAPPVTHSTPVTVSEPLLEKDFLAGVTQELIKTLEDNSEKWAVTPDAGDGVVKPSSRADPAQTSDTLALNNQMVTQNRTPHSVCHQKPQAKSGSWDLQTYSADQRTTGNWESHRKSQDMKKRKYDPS

- IC50 (Leucine aminopeptidase): 32.6 µM (active)
- IC50 (Aminopeptidase N): 10.4 µM (active)
- AC50 [1]: 10.4 µM (active)
Structure (SMILES): Cc1ccc(C)c(N2C(=N)S/C(=C\c3ccc(-c4ccccc4C(=O)O)o3)C2=O)c1

- IC50 [2]: 3.13 µM (active)
- IC50 [3]: 38.8 µM (inactive)
- IC50 [4]: 1.03 µM (active)
Structure (SMILES): NS(=O)(=O)c1ccc(NC(=S)N2CCC(Cc3ccccc3)CC2)cc1

- AC50 [1]: > 20 µM (inactive)
Structure (SMILES): C=CCNCCCCOc1ccccc1

- IC50 [5]: > 20 µM (inactive)
- AC50 [6]: 0.792 µM (active)
Structure (SMILES): CN(C)CCOC(=O)c1ccc2[nH]c3c(c2c1)CSCC3
